For the experiment, the system named is CD2F1 mice, L1210 leukemia ip, survival T/C. Briefly: NCI In Vivo Anticancer Drug Screen. Data for tumor model L1210 Leukemia (intraperitoneal) in CD2F1 (CDF1) mice. Conditions: higher = longer survival. In a few lines:
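Read-out first: treated-group measurement over vehicle-control measurement, expressed as a ratio. Animals bore a transplanted tumor line and were dosed with compound or vehicle.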

The mark [1] stands for this setting: endpoint: mean survival time, dose: 25.0 mg/kg/injection, schedule: Q01DX009 (ip), vehicle: acetone.
Setting [2] is: endpoint: mean survival time, dose: 50.0 mg/kg/injection, schedule: Q01DX009 (ip), vehicle: acetone.
The mark [3] stands for this setting: endpoint: mean survival time, dose: 50.0 mg/kg/injection, schedule: Q01DX009 (ip), vehicle: saline with Tween-80.
The mark [4] stands for this setting: endpoint: mean survival time, dose: 100.0 mg/kg/injection, schedule: Q01DX009 (ip), vehicle: saline with Tween-80.
Where [5] appears, read: endpoint: mean survival time, dose: 100.0 mg/kg/injection, schedule: Q04DX003 (ip), vehicle: saline with Tween-80.
Where [6] appears, read: endpoint: mean survival time, dose: 200.0 mg/kg/injection, schedule: Q01DX009 (ip), vehicle: saline with Tween-80.
Setting [7] is: endpoint: mean survival time, dose: 200.0 mg/kg/injection, schedule: Q04DX003 (ip), vehicle: saline with Tween-80.
[8] abbreviates: endpoint: mean survival time, dose: 200.0 mg/kg/injection, schedule: Q01DX001 (ip), vehicle: saline with Tween-80.

“And” between values parts separate entries of the source, which are not always exact repeats. Equal entries are not always repeated. Inconclusive results and toxic doses are left out.

Turning to `COc1cc2c(c(OC)c1OC)-c1ccc(OC)c(=O)cc1[C@@H](N(C)C(C)=O)CC2`, the T/C (endpoint: mean survival time, dose: 0.06 mg/kg/injection, schedule: Q01DX005 (ip), vehicle: Klucel (hydroxypropylcellulose) (HPC)) was 103 % of control; the T/C (endpoint: mean survival time, dose: 0.13 mg/kg/injection, schedule: Q01DX005 (ip), vehicle: Klucel (hydroxypropylcellulose) (HPC)) is 104 % of control; the T/C (endpoint: mean survival time, dose: 0.25 mg/kg/injection, schedule: Q01DX005 (ip), vehicle: Klucel (hydroxypropylcellulose) (HPC)) was 110 % of control; the T/C (endpoint: mean survival time, dose: 1.0 mg/kg/injection, schedule: Q01DX005 (ip), vehicle: Klucel (hydroxypropylcellulose) (HPC)) is 150 % of control.
Turning to `FC(F)(F)/C([S-])=C(/[S-])C(F)(F)F.FC(F)(F)/C([S-])=C(/[S-])C(F)(F)F.FC(F)(F)/C([S-])=C(/[S-])C(F)(F)F.FC(F)(F)/C([S-])=C(/[S-])C(F)(F)F.[Co+3].[Co+3]`, the T/C (endpoint: mean survival time, dose: 12.5 mg/kg/injection, schedule: Q04DX003 (ip), vehicle: other) was 95 % of control; the T/C (endpoint: mean survival time, dose: 25.0 mg/kg/injection, schedule: Q04DX003 (ip), vehicle: other) is 95 % of control; the T/C (endpoint: mean survival time, dose: 50.0 mg/kg/injection, schedule: Q04DX003 (ip), vehicle: other) was 98 % of control.
With `O=C(Oc1ccc(OC(=O)c2ccccc2)c2c1C(=O)C(CBr)=C(CBr)C2=O)c1ccccc1`, the T/C by setting is: (endpoint: mean survival time, dose: 0.75 mg/kg/injection, schedule: Q01DX009 (ip), vehicle: water) 93 % of control; (endpoint: mean survival time, dose: 1.5 mg/kg/injection, schedule: Q01DX009 (ip), vehicle: water) 101 % of control; (endpoint: mean survival time, dose: 3.0 mg/kg/injection, schedule: Q01DX009 (ip), vehicle: water) 93 % of control and 97 % of control; (endpoint: mean survival time, dose: 6.0 mg/kg/injection, schedule: Q01DX009 (ip), vehicle: water) 93 % of control and 95 % of control; (endpoint: mean survival time, dose: 12.0 mg/kg/injection, schedule: Q01DX009 (ip), vehicle: water) 93 % of control; (endpoint: mean survival time, dose: 12.5 mg/kg/injection, schedule: Q01DX009 (ip), vehicle: water) 86 % of control. For the same compound, the T/C was 90 % of control (endpoint: mean survival time, dose: 24.0 mg/kg/injection, schedule: Q01DX009 (ip), vehicle: water); 91 % of control (endpoint: mean survival time, dose: 25.0 mg/kg/injection, schedule: Q01DX009 (ip), vehicle: water); 87 % of control (endpoint: mean survival time, dose: 50.0 mg/kg/injection, schedule: Q01DX009 (ip), vehicle: water); 100 % of control (endpoint: mean survival time, dose: 100.0 mg/kg/injection, schedule: Q01DX009 (ip), vehicle: water); 86 % of control (endpoint: mean survival time, dose: 200.0 mg/kg/injection, schedule: Q01DX009 (ip), vehicle: water).
Consider `CC1(C)CC(=O)C2(C)C(C1O)C2C1C2C(O)C(C)(C)CC(=O)C21C` (stereo unspecified), for which the T/C reads like this: (endpoint: mean survival time, dose: 75.0 mg/kg/injection, schedule: Q01DX001 (ip), vehicle: other) 96 % of control; (endpoint: mean survival time, dose: 150.0 mg/kg/injection, schedule: Q01DX001 (ip), vehicle: other) 94 % of control; (endpoint: mean survival time, dose: 300.0 mg/kg/injection, schedule: Q01DX001 (ip), vehicle: other) 91 % of control.
Regarding `C(#Cc1ccccc1)C[P+](c1ccccc1)(c1ccccc1)c1ccccc1`, the T/C was 95 % of control (endpoint: mean survival time, dose: 1.25 mg/kg/injection, schedule: Q01DX009 (ip), vehicle: saline with Tween-80); 101 % of control (endpoint: mean survival time, dose: 2.5 mg/kg/injection, schedule: Q01DX009 (ip), vehicle: saline with Tween-80); 102 % of control (endpoint: mean survival time, dose: 5.0 mg/kg/injection, schedule: Q01DX001 (ip), vehicle: saline with Tween-80); 93 % of control and 103 % of control (endpoint: mean survival time, dose: 5.0 mg/kg/injection, schedule: Q01DX009 (ip), vehicle: saline with Tween-80); 106 % of control (endpoint: mean survival time, dose: 10.0 mg/kg/injection, schedule: Q01DX001 (ip), vehicle: saline with Tween-80); 104 % of control (endpoint: mean survival time, dose: 20.0 mg/kg/injection, schedule: Q01DX001 (ip), vehicle: saline with Tween-80).
With `CC(C)CN1CCCC(=O)C(O)CCC1` (stereo unspecified), the T/C was 98 % of control under setting [1] and 93 % of control under setting [2].
For `CCOC(=O)CCC(NC(=O)OCCNCCCl)C(=O)OCC` (stereo unspecified), the T/C runs as follows: (endpoint: mean survival time, dose: 40.0 mg/kg/injection, schedule: Q01DX Z (ip), vehicle: saline) 100 % of control; (endpoint: mean survival time, dose: 80.0 mg/kg/injection, schedule: Q01DX Z (ip), vehicle: saline) 96 % of control; (endpoint: mean survival time, dose: 160.0 mg/kg/injection, schedule: Q01DX Z (ip), vehicle: saline) 103 % of control; (endpoint: mean survival time, dose: 320.0 mg/kg/injection, schedule: Q01DX Z (ip), vehicle: saline) 117 % of control.
In the case of `c1ccc2cc(N=NNc3ccc4ccccc4c3)ccc2c1`, the T/C under setting [3] was 94 % of control; the T/C under setting [4] was 98 % of control; the T/C under setting [5] was 95 % of control; the T/C under setting [6] was 100 % of control; the T/C under setting [7] is 92 % of control.
`CCCC(=O)Nc1ccc(S(=O)(=O)Nc2ccc(S(=O)(=O)N3CCOCC3)cc2)cc1`: the T/C is 103 % of control (endpoint: mean survival time, dose: 100.0 mg/kg/injection, schedule: Q01DX001 (ip), vehicle: saline with Tween-80); 92 % of control under setting [8]; 94 % of control (endpoint: mean survival time, dose: 400.0 mg/kg/injection, schedule: Q01DX001 (ip), vehicle: saline with Tween-80).
Turning to `O=C1C=C(c2ccc(O)cc2)CO1`, the T/C by setting is: under setting [5], 97 % of control; under setting [7], 94 % of control; (endpoint: mean survival time, dose: 400.0 mg/kg/injection, schedule: Q04DX003 (ip), vehicle: saline with Tween-80) 97 % of control.
`C=C(Cl)CSCC`: the T/C runs as follows: under setting [1], 114 % of control; under setting [2], 120 % of control.
For `Cc1nc(C(=O)O)c(C(=O)O)[nH]1`, the T/C reads like this: under setting [4], 98 % of control; under setting [5], 100 % of control; under setting [6], 97 % of control; under setting [7], 94 % of control.
Turning to `CC(C)OC(=O)Oc1cccs1`, the T/C is 102 % of control (endpoint: mean survival time, dose: 12.5 mg/kg/injection, schedule: Q01DX009 (ip), vehicle: saline with Tween-80); 103 % of control (endpoint: mean survival time, dose: 12.5 mg/kg/injection, schedule: Q04DX003 (ip), vehicle: saline sonified); 96 % of control (endpoint: mean survival time, dose: 25.0 mg/kg/injection, schedule: Q01DX009 (ip), vehicle: saline with Tween-80); 97 % of control (endpoint: mean survival time, dose: 25.0 mg/kg/injection, schedule: Q04DX003 (ip), vehicle: saline sonified); 104 % of control under setting [3]; 101 % of control (endpoint: mean survival time, dose: 50.0 mg/kg/injection, schedule: Q04DX003 (ip), vehicle: saline sonified).
As to `CCCCCCCCCCCCCCC(=O)Nc1ccccc1`, the T/C is 101 % of control (endpoint: mean survival time, dose: 12.5 mg/kg/injection, schedule: Q04DX002 (ip), vehicle: saline with Tween-80); 96 % of control (endpoint: mean survival time, dose: 25.0 mg/kg/injection, schedule: Q04DX002 (ip), vehicle: saline with Tween-80); 86 % of control (endpoint: mean survival time, dose: 50.0 mg/kg/injection, schedule: Q04DX002 (ip), vehicle: saline with Tween-80); 89 % of control under setting [8].
Regarding `CC(=O)Nc1cccc(NC(C)=O)n1`, the T/C by setting is: under setting [4], 95 % of control; under setting [6], 94 % of control; (endpoint: mean survival time, dose: 400.0 mg/kg/injection, schedule: Q01DX009 (ip), vehicle: saline with Tween-80) 91 % of control.
For `CC(C)NC(=O)Nc1ccccc1Cl`, the T/C reads like this: (endpoint: mean survival time, dose: 100.0 mg/kg/injection, schedule: Q04DX002 (ip), vehicle: saline with Tween-80) 93 % of control; (endpoint: mean survival time, dose: 200.0 mg/kg/injection, schedule: Q04DX002 (ip), vehicle: saline with Tween-80) 97 % of control; (endpoint: mean survival time, dose: 400.0 mg/kg/injection, schedule: Q04DX002 (ip), vehicle: saline with Tween-80) 104 % of control.
Regarding `CCOC(=O)/C=C/C(=O)N1CCN(C(=O)/C=C/C(=O)OCC)C(C)C1` (stereo unspecified), the T/C was 106 % of control (endpoint: median survival time, dose: 25.0 mg/kg/injection, schedule: Q01DX009 (ip), vehicle: Klucel (hydroxypropylcellulose) (HPC)); 110 % of control (endpoint: median survival time, dose: 50.0 mg/kg/injection, schedule: Q01DX009 (ip), vehicle: Klucel (hydroxypropylcellulose) (HPC)); 109 % of control (endpoint: median survival time, dose: 100.0 mg/kg/injection, schedule: Q01DX009 (ip), vehicle: Klucel (hydroxypropylcellulose) (HPC)); 109 % of control (endpoint: median survival time, dose: 200.0 mg/kg/injection, schedule: Q01DX009 (ip), vehicle: Klucel (hydroxypropylcellulose) (HPC)); 109 % of control (endpoint: median survival time, dose: 400.0 mg/kg/injection, schedule: Q01DX009 (ip), vehicle: Klucel (hydroxypropylcellulose) (HPC)).

The values above are taken from PubChem BioAssay AID256 (DTP/NCI, 2004).
